pIC50: −log10 of the molar value.
Molecular target: His6-TEV-PDGFRβ (557-1016) (Homo sapiens (Human), UniProt P09619)
Assay: PDGFRβ HTRF Assay
Format: biochemical
Settings: read-out: PDGFR HTRF IC50
In short: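 Human PDGFRβ (557-1016) pre-incubated with compound for 30 min at RT in pH 7.5 HEPES/MgCl2/EGTA/Brij-35/DTT buffer. Reaction started with ATP and TK-biotin peptide, run 3 h at RT, then quenched with EDTA-containing Eu-cryptate antibody/streptavidin-XL665. HTRF 665/620 nm ratio read after 60 min; percent inhibition relative to DMSO and 10 μM imatinib controls.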

Sequence of His6-TEV-PDGFRβ (557-1016) (P09619 557-1016): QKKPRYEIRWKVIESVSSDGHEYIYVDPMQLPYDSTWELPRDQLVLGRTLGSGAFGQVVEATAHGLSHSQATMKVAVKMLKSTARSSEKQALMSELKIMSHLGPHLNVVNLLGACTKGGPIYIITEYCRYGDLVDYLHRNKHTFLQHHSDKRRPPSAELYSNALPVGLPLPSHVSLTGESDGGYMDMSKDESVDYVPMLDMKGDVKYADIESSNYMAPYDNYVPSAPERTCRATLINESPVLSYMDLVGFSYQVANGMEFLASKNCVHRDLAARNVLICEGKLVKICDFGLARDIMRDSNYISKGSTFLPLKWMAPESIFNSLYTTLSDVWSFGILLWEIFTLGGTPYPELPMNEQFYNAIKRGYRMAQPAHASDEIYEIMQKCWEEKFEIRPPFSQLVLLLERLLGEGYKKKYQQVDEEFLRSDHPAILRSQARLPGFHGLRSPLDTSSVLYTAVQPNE

Structure (SMILES) | pIC50
Cc1ncc(NC(=O)CN2C[C@@H](CO)OC(C)(C)C2)cc1NC(=O)c1cnn2cc(-c3cnn(C)c3)sc12 [Example 377, (S)—N-(5-(2-(6-(hydroxymethyl)-2,2-dimethylmorpholino)acetamido)-2-methylpyridin-3-yl)-2-(1-methyl-1H-pyrazol-4-yl)pyrazolo[5,1-b]thiazole-7-carboxamide] | 9.10
COc1ncccc1-c1cn2ncc(C(=O)Nc3cc(NC(=O)CN4C[C@H](CO)OC(C)(C)C4)cnc3C)c2s1 [Example 379, (R)—N-(5-(2-(6-(hydroxymethyl)-2,2-dimethylmorpholino)acetamido)-2-methylpyridin-3-yl)-2-(2-methoxypyridin-3-yl)pyrazolo[5,1-b]thiazole-7-carboxamide] | 9.40
COc1ncccc1-c1cn2ncc(C(=O)Nc3cc(NC(=O)CN4C[C@@H](CO)OC(C)(C)C4)cnc3C)c2s1 [Example 380, (S)—N-(5-(2-(6-(hydroxymethyl)-2,2-dimethylmorpholino)acetamido)-2-methylpyridin-3-yl)-2-(2-methoxypyridin-3-yl)pyrazolo[5,1-b]thiazole-7-carboxamide] | 9.40
COCC1CN(CC(=O)Nc2cnc(C)c(NC(=O)c3cnn4cc(-c5cnn(C)c5)sc34)c2)CC(C)(C)O1 (centres unmarked) [Example 383, N-(5-(2-(6-(methoxymethyl)-2,2-dimethylmorpholino)acetamido)-2-methylpyridin-3-yl)-2-(1-methyl-1H-pyrazol-4-yl)pyrazolo[5,1-b]thiazole-7-carboxamide] | 9.00
COc1ncccc1-c1cn2ncc(C(=O)Nc3cc(C(=O)NCCN4CC(C)(C)C4)cnc3C)c2s1 [Example 387, N-(5-((2-(3,3-dimethylazetidin-1-yl)ethyl)carbamoyl)-2-methylpyridin-3-yl)-2-(2-methoxypyridin-3-yl)pyrazolo[5,1-b]thiazole-7-carboxamide] | 9.70
CCn1nccc1-c1cn2ncc(C(=O)Nc3cc(NC(=O)CN4CC(C)(C)C4)cnc3C)c2s1 [Example 388, N-(5-(2-(3,3-dimethylazetidin-1-yl)acetamido)-2-methylpyridin-3-yl)-2-(1-ethyl-1H-pyrazol-5-yl)pyrazolo[5,1-b]thiazole-7-carboxamide] | 9.30
Cc1cnn(C)c1-c1cn2ncc(C(=O)Nc3cc(NC(=O)CN4CC(C)(C)C4)cnc3C)c2s1 [Example 389, 2-(1,4-dimethyl-1H-pyrazol-5-yl)-N-(5-(2-(3,3-dimethylazetidin-1-yl)acetamido)-2-methylpyridin-3-yl)pyrazolo[5,1-b]thiazole-7-carboxamide] | 9.22
Cc1ncc(NC(=O)CN2CC(C)(C)C2)cc1NC(=O)c1cnn2cc(-c3cccnc3C)sc12 [Example 390, N-(5-(2-(3,3-dimethylazetidin-1-yl)acetamido)-2-methylpyridin-3-yl)-2-(2-methylpyridin-3-yl)pyrazolo[5,1-b]thiazole-7-carboxamide] | 9.22
CCc1ncccc1-c1cn2ncc(C(=O)Nc3cc(NC(=O)CN4CC(C)(C)C4)cnc3C)c2s1 [Example 391, N-(5-(2-(3,3-dimethylazetidin-1-yl)acetamido)-2-methylpyridin-3-yl)-2-(2-ethylpyridin-3-yl)pyrazolo[5,1-b]thiazole-7-carboxamide] | 9.05
COc1ncc(-c2cn3ncc(C(=O)Nc4cc(NC(=O)CN5CC(C)(C)C5)cnc4C)c3s2)c(OC)n1 [Example 392, 2-(2,4-dimethoxypyrimidin-5-yl)-N-(5-(2-(3,3-dimethylazetidin-1-yl)acetamido)-2-methylpyridin-3-yl)pyrazolo[5,1-b]thiazole-7-carboxamide] | 9.30
COc1cc(-c2cn3ncc(C(=O)Nc4cc(NC(=O)CN5CC(C)(C)C5)cnc4C)c3s2)c(OC)nn1 [Example 393, 2-(3,6-dimethoxypyridazin-4-yl)-N-(5-(2-(3,3-dimethylazetidin-1-1)acetamido)-2-methylpyridin-3-yl)pyrazolo[5,1-b]thiazole-7-carboxamide] | 9.15
COc1cccc(-c2cn3ncc(C(=O)Nc4cc(NC(=O)CN5CC(C)(C)C5)cnc4C)c3s2)n1 [Example 394, N-(5-(2-(3,3-dimethylazetidin-1-yl)acetamido)-2-methylpyridin-3-yl)-2-(6-methoxypyridin-2-yl)pyrazolo[5,1-b]thiazole-7-carboxamide] | 9.70
COc1ccc(-c2cn3ncc(C(=O)Nc4cc(NC(=O)CN5CC(C)(C)C5)cnc4C)c3s2)cn1 [Example 395, N-(5-(2-(3,3-dimethylazetidin-1-yl)acetamido)-2-methylpyridin-3-yl)-2-(6-methoxypyridin-3-yl)pyrazolo[5,1-b]thiazole-7-carboxamide] | 9.40
COc1ncccc1-c1cn2ncc(C(=O)Nc3cc(NC(=O)CN4CC(C)(OC)C4)cnc3C)c2s1 [Example 396, N-(5-(2-(3-methoxy-3-methylazetidin-1-yl)acetamido)-2-methylpyridin-3-yl)-2-(2-methoxypyridin-3-yl)pyrazolo[5,1-b]thiazole-7-carboxamide] | 9.52
COc1ncccc1-c1cn2ncc(C(=O)Nc3cc(NC(=O)CN4CCC4)cnc3C)c2s1 [Example 397, N-(5-(2-(azetidin-1-yl)acetamido)-2-methylpyridin-3-yl)-2-(2-methoxypyridin-3-yl)pyrazolo[5,1-b]thiazole-7-carboxamide] | 9.10
Cc1ncc(NC(=O)CN2CC(C)(C)C2)cc1NC(=O)c1cnn2cc(-c3cncnc3C)sc12 [Example 398, N-(5-(2-(3,3-dimethylazetidin-1-yl)acetamido)-2-methylpyridin-3-yl)-2-(4-methylpyrimidin-5-yl)pyrazolo[5,1-b]thiazole-7-carboxamide] | 8.17
COc1cnccc1-c1cn2ncc(C(=O)Nc3cc(NC(=O)CN4CC(C)(C)C4)cnc3C)c2s1 [Example 399, N-(5-(2-(3,3-dimethylazetidin-1-yl)acetamido)-2-methylpyridin-3-yl)-2-(3-methoxypyridin-4-yl)pyrazolo[5,1-b]thiazole-7-carboxamide] | 9.70
COc1ncccc1-c1cn2ncc(C(=O)Nc3cc(NC(=O)CN4CC(F)C4)cnc3C)c2s1 [Example 402, N-(5-(2-(3-fluoroazetidin-1-yl)acetamido)-2-methylpyridin-3-yl)-2-(2-methoxypyridin-3-yl)pyrazolo[5,1-b]thiazole-7-carboxamide] | 9.52
COc1ncccc1-c1cn2ncc(C(=O)Nc3cc(NC(=O)CN4CC5(CCOCC5)C4)cnc3C)c2s1 [Example 403, N-(5-(2-(7-oxa-2-azaspiro[3.5]nonan-2-yl)acetamido)-2-methylpyridin-3-yl)-2-(2-methoxypyridin-3-yl)pyrazolo[5,1-b]thiazole-7-carboxamide carboxamide] | 9.70
COc1ncccc1-c1cn2ncc(C(=O)Nc3cc(NC(=O)CN4CC5(COC5)C4)cnc3C)c2s1 [Example 404, N-(5-(2-(2-oxa-6-azaspiro[3.3]heptan-6-yl)acetamido)-2-methylpyridin-3-yl)-2-(2-methoxypyridin-3-yl)pyrazolo[5,1-b]thiazole-7-carboxamide] | 9.52
COc1ncccc1-c1cn2ncc(C(=O)Nc3cc(NC(=O)CN4CC(C)C4)cnc3C)c2s1 [Example 405, 2-(2-methoxypyridin-3-yl)-N-(2-methyl-5-(2-(3-methylazetidin-1-yl)acetamido)pyridin-3-yl)pyrazolo[5,1-b]thiazole-7-carboxamide] | 9.70
Cc1ncc(NC(=O)CN2CC3(CCOCC3)C2)cc1NC(=O)c1cnn2cc(-c3cnn4c3OCCC4)sc12 [Example 406, N-(5-(2-(7-oxa-2-azaspiro[3.5]nonan-2-yl)acetamido)-2-methylpyridin-3-yl)-2-(6,7-dihydro-5H-pyrazolo[5,1-b][1,3]oxazin-3-yl)pyrazolo[5,1-b]thiazole-7-carboxamide] | 9.40
Cc1ncc(NC(=O)CN2CC(C)C2)cc1NC(=O)c1cnn2cc(-c3cnn4c3OCCC4)sc12 [Example 407, 2-(6,7-dihydro-5H-pyrazolo[5,1-b][1,3]oxazin-3-yl)-N-(2-methyl-5-(2-(3-methylazetidin-1-yl)acetamido)pyridin-3-yl)pyrazolo[5,1-b]thiazole-7-carboxamide] | 9.52

From patent publication US20240109917A1 (ACTELION PHARMACEUTICALS LTD, priority 2020, published 2024)
